Columns and labels:
bedstraw = test: Test B pre/postemergence bedstraw; format: in vivo, Galium aparine
How it was run: (§1)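 Test chemicals in a non-phytotoxic solvent mixture with surfactant were sprayed preemergence onto planted seeds and postemergence onto plants 2 to 18 cm tall (1- to 4-leaf stage). After twelve to sixteen days in a greenhouse, injury was visually rated against untreated controls from 0 (no effect) to 10 (complete control).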

blackgrass = test: Test B pre/postemergence blackgrass; format: in vivo, Alopecurus myosuroides
How it was run: as §1

surinam grass = test: Test B pre/postemergence surinam grass; format: in vivo, Brachiaria decumbens
How it was run: as §1

cocklebur = test: Test B pre/postemergence cocklebur; format: in vivo, Xanthium strumarium
How it was run: as §1

corn = test: Test B pre/postemergence corn; format: in vivo, Zea mays
How it was run: as §1

crabgrass = test: Test B pre/postemergence crabgrass; format: in vivo, Digitaria sanguinalis
How it was run: as §1

giant foxtail = test: Test B pre/postemergence giant foxtail; format: in vivo, Setaria faberii
How it was run: as §1

morningglory = test: Test B pre/postemergence morningglory; format: in vivo, Ipomoea hederacea
How it was run: as §1

rape = test: Test B pre/postemergence rape; format: in vivo, Brassica napus
How it was run: as §1

soybean = test: Test B pre/postemergence soybean; format: in vivo, Glycine max
How it was run: as §1

velvetleaf = test: Test B pre/postemergence velvetleaf; format: in vivo, Abutilon theophrasti
How it was run: as §1

wheat = test: Test B pre/postemergence wheat; format: in vivo, Triticum aestivum
How it was run: as §1

wild oat = test: Test B pre/postemergence wild oat; format: in vivo, Avena fatua
How it was run: as §1

smallflower flatsedge = test: Test B flood test smallflower flatsedge; format: in vivo, Cyperus difformis; conditions: for S. Flatsedge plant response rating: scale of 0 to 10 where 0 is no effect and 10 is complete control
How it was run: (§2)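 Read-out is a visual response score from 0 (no effect) to 10 (complete control), assigned by comparison with untreated controls. Treatment was applied at the 2-leaf stage, and plants stayed in the greenhouse for twelve to sixteen days before scoring.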

duck salad = test: Test B flood test duck salad; format: in vivo, Heteranthera limosa
How it was run: as §2

bamyardgrass = test: Test B flood test barnyardgrass; format: in vivo, Echinochloa crus-galli
How it was run: as §2

[1] = Postemergence, Rate 125 g/ha, scale of 0 to 10 where 0 is no effect and 10 is complete control
[2] = Preemergence, Rate 62 g/ha, scale 0 to 10 (0 no effect, 10 complete control)
[3] = Preemergence, Rate 125 g/ha, 0 is no effect, 10 is complete control
[4] = Preemergence, Rate 250 g/ha, scale 0 to 10, 0 is no effect, 10 is complete control
[5] = Preemergence, Rate 500 g/ha, scale 0 to 10 (0 no effect, 10 complete control)
[6] = Rate 62 g/ha, Postemergence, scale of 0 to 10 where 0 is no effect and 10 is complete control
[7] = Rate 250 g/ha, Postemergence, scale 0 to 10, 0 is no effect, 10 is complete control
[8] = Rate 500 g/ha, Postemergence, scale 0 to 10
[9] = Rate 250 g/ha, Postemergence (flood test), scale 0 to 10, 0 is no effect, 10 is complete control
[10] = Postemergence (flood test species), Rate 125 g/ha, scale of 0 to 10 where 0 is no effect and 10 is complete control
[11] = Rate 31 g/ha, Postemergence section (flood test species), scale 0 to 10
[12] = Rate 62 g/ha, Postemergence section, flood test species, scale of 0 to 10 where 0 is no effect and 10 is complete control

CC(C)N(C(=O)n1oc(=O)n(C)c1=O)c1ccc(Cl)cc1 [Compound 137]
Bedstraw plant response rating (bedstraw; [1]): 8
Bedstraw plant response rating (bedstraw; [2]): 4
Bedstraw plant response rating (0 to 10 scale) (bedstraw; [3]): 7
Bedstraw plant response rating (bedstraw; [4]): 7
Bedstraw plant response rating (bedstraw; [5]): 10
Bedstraw plant response rating (bedstraw; [6]): 4
Plant response rating, Bedstraw (bedstraw; [7]): 8
Blackgrass plant response rating (blackgrass; [1]): 6
Blackgrass plant response rating (blackgrass; [2]): 7
Blackgrass plant response rating (0 to 10 scale) (blackgrass; [3]): 9
Blackgrass plant response rating (blackgrass; [4]): 9
Blackgrass plant response rating (blackgrass; [5]): 10
Blackgrass plant response rating (blackgrass; [6]): 5
Plant response rating, Blackgrass (blackgrass; [7]): 8
Blackgrass plant response rating (blackgrass; [8]): 8
B. signalgrass plant response rating (surinam grass; [1]): 4
B. signalgrass plant response rating (surinam grass; [2]): 3
B. signalgrass plant response rating (0 to 10 scale) (surinam grass; [3]): 5
B. signalgrass plant response rating (surinam grass; [4]): 7
B. signalgrass plant response rating (surinam grass; [5]): 9
B. signalgrass plant response rating (surinam grass; [6]): 0
Plant response rating, B. signalgrass (surinam grass; [7]): 5
B. signalgrass plant response rating (surinam grass; Rate 500 g/ha, Postemergence, scale of 0 to 10 where 0 is no effect and 10 is complete control): 8
Cocklebur plant response rating (cocklebur; [1]): 0
Cocklebur plant response rating (cocklebur; [2]): 0
Cocklebur plant response rating (0 to 10 scale) (cocklebur; [3]): 0
Cocklebur plant response rating (cocklebur; [4]): 0
Cocklebur plant response rating (cocklebur; [5]): 0
Cocklebur plant response rating (cocklebur; [6]): 0
Plant response rating, Cocklebur (cocklebur; [7]): 3
Cocklebur plant response rating (cocklebur; [8]): 4
Corn plant response rating (corn; [1]): 0
Corn plant response rating (corn; [2]): 0
Corn plant response rating (0 to 10 scale) (corn; [3]): 0
Corn plant response rating (corn; [4]): 0
Corn plant response rating (corn; [5]): 4
Corn plant response rating (corn; [6]): 0
Plant response rating, Corn (corn; [7]): 3
Corn plant response rating (corn; [8]): 5
Crabgrass plant response rating (crabgrass; [1]): 8
Crabgrass plant response rating (crabgrass; [2]): 8
Crabgrass plant response rating (0 to 10 scale) (crabgrass; [3]): 10
Crabgrass plant response rating (crabgrass; [4]): 10
Crabgrass plant response rating (crabgrass; [5]): 10
Crabgrass plant response rating (crabgrass; [6]): 7
Plant response rating, Crabgrass (crabgrass; [7]): 9
Crabgrass plant response rating (crabgrass; [8]): 9
Giant foxtail plant response rating (giant foxtail; [1]): 8
Giant foxtail plant response rating (giant foxtail; [2]): 8
Giant foxtail plant response rating (0 to 10 scale) (giant foxtail; [3]): 9
Giant foxtail plant response rating (giant foxtail; [4]): 10
Giant foxtail plant response rating (giant foxtail; [5]): 10
Giant foxtail plant response rating (giant foxtail; [6]): 8
Plant response rating, Giant foxtail (giant foxtail; [7]): 9
Giant foxtail plant response rating (giant foxtail; [8]): 9
Morningglory plant response rating (morningglory; [1]): 7
Morningglory plant response rating (morningglory; [2]): 0
Morningglory plant response rating (0 to 10 scale) (morningglory; [3]): 0
Morningglory plant response rating (morningglory; [4]): 0
Morningglory plant response rating (morningglory; [5]): 1
Morningglory plant response rating (morningglory; [6]): 7
Plant response rating, Morningglory (morningglory; [7]): 7
Morningglory plant response rating (morningglory; [8]): 8
Rape plant response rating (rape; [2]): 0
Rape plant response rating (0 to 10 scale) (rape; [3]): 4
Rape plant response rating (rape; [4]): 10
Rape plant response rating (rape; [5]): 10
Rape plant response rating (rape; [6]): 0
Plant response rating, Rape (rape; [7]): 6
Rape plant response rating (rape; [8]): 7
Soybean plant response rating (soybean; [1]): 6
Soybean plant response rating (soybean; [2]): 0
Soybean plant response rating (0 to 10 scale) (soybean; [3]): 0
Soybean plant response rating (soybean; [4]): 3
Soybean plant response rating (soybean; [5]): 5
Soybean plant response rating (soybean; [6]): 5
Plant response rating, Soybean (soybean; [7]): 7
Soybean plant response rating (soybean; [8]): 8
Velvetleaf plant response rating (velvetleaf; [1]): 0
Velvetleaf plant response rating (velvetleaf; [2]): 3
Velvetleaf plant response rating (0 to 10 scale) (velvetleaf; [3]): 6
Velvetleaf plant response rating (velvetleaf; [4]): 7
Velvetleaf plant response rating (velvetleaf; [5]): 10
Velvetleaf plant response rating (velvetleaf; [6]): 0
Plant response rating, Velvetleaf (velvetleaf; [7]): 4
Velvetleaf plant response rating (velvetleaf; [8]): 5
Wheat plant response rating (wheat; [1]): 0
Wheat plant response rating (wheat; [2]): 0
Wheat plant response rating (0 to 10 scale) (wheat; [3]): 4
Wheat plant response rating (wheat; [4]): 5
Wheat plant response rating (wheat; [5]): 5
Wheat plant response rating (wheat; [6]): 0
Plant response rating, Wheat (wheat; [7]): 5
Wheat plant response rating (wheat; [8]): 6
Wild oats plant response rating (wild oat; [1]): 2
Wild oats plant response rating (wild oat; [2]): 5
Wild oats plant response rating (0 to 10 scale) (wild oat; [3]): 8
Wild oats plant response rating (wild oat; [4]): 9
Wild oats plant response rating (wild oat; [5]): 10
Wild oats plant response rating (wild oat; [6]): 1
Plant response rating, Wild oats (wild oat; [7]): 4
Wild oats plant response rating (wild oat; [8]): 5
S. Flatsedge plant response rating (smallflower flatsedge; Postemergence (flood test species), Rate 125 g/ha): 0
S. Flatsedge plant response rating (smallflower flatsedge; Rate 62 g/ha, Postemergence section, flood test species): 0
Plant response rating, S. Flatsedge (smallflower flatsedge; [9]): 0
Ducksalad plant response rating (duck salad; [10]): 0
Ducksalad plant response rating (duck salad; [11]): 0
Ducksalad plant response rating (duck salad; [12]): 0
Plant response rating, Ducksalad (duck salad; [9]): 0
Barnyardgrass plant response rating (bamyardgrass; [10]): 0
Barnyardgrass plant response rating (bamyardgrass; [11]): 0
Barnyardgrass plant response rating (bamyardgrass; [12]): 0
Plant response rating, Barnyardgrass (bamyardgrass; [9]): 0

From US6737383B1, “Herbicidal oxadiazolidines” (priority 1999, dated 2004)
